Where a name gives a salt, the structure may show the parent alone.
target: T1, RIPK1 (Homo sapiens, UniProt Q13546); assay: RIPK1-ADP-Glo enzymatic assay; type: biochemical; details: ADP-Glo luminescent ADP detection; 25 nM GST-RIPK1 kinase domain (residues 1-327), 300 μM ATP, dephosphorylated-MBP substrate; 30 min pre-incubation, 150 min reaction
T1 construct: recombinant GST-RIPK1 kinase domain (residues 1-327) enzyme produced from baculovirus-transfected Sf21 cells; host or cells: baculovirus-transfected Sf21 insect cells
T1 sequence (Q13546 1-327): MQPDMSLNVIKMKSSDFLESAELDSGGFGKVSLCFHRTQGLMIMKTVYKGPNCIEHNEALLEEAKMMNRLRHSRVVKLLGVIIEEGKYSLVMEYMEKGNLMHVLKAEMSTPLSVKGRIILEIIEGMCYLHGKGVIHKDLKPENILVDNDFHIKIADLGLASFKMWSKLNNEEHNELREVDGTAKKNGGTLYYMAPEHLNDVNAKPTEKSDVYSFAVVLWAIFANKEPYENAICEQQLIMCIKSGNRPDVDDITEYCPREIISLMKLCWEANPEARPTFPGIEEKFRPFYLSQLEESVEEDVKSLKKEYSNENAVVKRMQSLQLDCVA
Experimental: RIPK1-ADP-Glo Enzymatic Assay
The enzymatic activity of RIPK1 is measured using an assay derived from ADP-Glo kit (Promega™), which provides a luminescent-based ADP detection system. Specifically, the ADP generated by RIPK1 kinase is proportionally detected as luminescent signals in a homogenous fashion. In this context, the assessment of the inhibitory effect of small molecules (EC50) is measured by the effectiveness of the compounds to inhibit the ATP to ADP conversion by RIPK1.
In this assay, the potency (EC50) of each compound was determined from a ten-point (1:3 serial dilution; top compound concentration of 100000 nM) titration curve using the following outlined procedure. To each well of a white ProxiPlus 384 well-plate, 30 nL of compound (1% DMSO in final assay volume of 3 μL) was dispensed, followed by the addition of 2 μL of 1×assay buffer (25 mM Hepes 7.3, 20 mM MgCl2, 50 mM NaCl, 1 mM DTT, 0.005% Tween20, and 0.02% BSA) containing 37.5 nM of GST-RIPK1 (recombinant GST-RIPK1 kinase domain (residues 1-327) enzyme produced from baculovirus-transfected Sf21 cells: MW=62 kDa). Plates were placed in an ambient temperature humidified chamber for a 30 minutes pre-incubation with compound. Subsequently, each reaction was initiated by the addition of 1 μL 1×assay buffer containing 900 μM ATP and […] dephosphorylated-MBP substrate. The final reaction in each well of 3 μL consists of 25 nM of GST-RIPK1, 300 μM ATP, and 3 μM dephosphorylated-MBP. Kinase reactions were allowed to proceed for 150 minutes prior to adding ADP-Glo reagents per Promega's outlined kit protocol. Dose-response curves were generated by plotting percent effect (% product conversion; Y-axis) vs. Log10 compound concentrations (X-axis). EC50 values were calculated using a non-linear regression, four-parameters sigmoidal dose-response model.

| Compound | EC50 [nM] |
| --- | --- |
| O=C(N1CC2(CCCO2)C1)N1N=CC[C@H]1c1cc(F)cc(F)c1 [Example 1.26, (S)-(5-(3,5-difluorophenyl)-4,5-dihydro-1H-pyrazol-1-yl)(5-oxa-2-azaspiro[3.4]octan-2-yl)methanone] | 47.4 |
| O=C(N1CC(O)(C(F)(F)F)C1)N1N=CC[C@H]1c1cc(F)cc(F)c1 [Example 1.27, (S)-(5-(3,5-difluorophenyl)-4,5-dihydro-1H-pyrazol-1-yl)(3-hydroxy-3-(trifluoromethyl)azetidin-1-yl)methanone] | 988 |
| CC1(O)CN(C(=O)N2N=CC[C@H]2c2cc(F)cc(F)c2)C1 [Example 1.28, (S)-(5-(3,5-difluorophenyl)-4,5-dihydro-1H-pyrazol-1-yl)(3-hydroxy-3-methylazetidin-1-yl)methanone] | 3590 |
| CC1(F)CN(C(=O)N2N=CC[C@H]2c2cc(F)cc(F)c2)C1 [Example 1.29, (S)-(5-(3,5-difluorophenyl)-4,5-dihydro-1H-pyrazol-1-yl)(3-fluoro-3-methylazetidin-1-yl)methanone] | 61.7 |
| CC(C)C1(O)CN(C(=O)N2N=CC[C@H]2c2cc(F)cc(F)c2)C1 [Example 1.30, (S)-(5-(3,5-difluorophenyl)-4,5-dihydro-1H-pyrazol-1-yl)(3-hydroxy-3-isopropylazetidin-1-yl)methanone] | 2290 |
| O=C(N1CC(F)C1)N1N=CC[C@H]1c1cc(F)cc(F)c1 [Example 1.31, (S)-(5-(3,5-difluorophenyl)-4,5-dihydro-1H-pyrazol-1-yl)(3-fluoroazetidin-1-yl)methanone] | 38.4 |
| O=C(N1CC(F)(F)C1)N1N=CC[C@H]1c1cc(F)cc(F)c1 [Example 1.32, (S)-(3,3-difluoroazetidin-1-yl)(5-(3,5-difluorophenyl)-4,5-dihydro-1H-pyrazol-1-yl)methanone] | 17.2 |
| O=C(N1CC(Cl)C1)N1N=CC[C@H]1c1cc(F)cc(F)c1 [Example 1.33, (S)-(3-chloroazetidin-1-yl)(5-(3,5-difluorophenyl)-4,5-dihydro-1H-pyrazol-1-yl)methanone] | 18.3 |
| O=C(N1CC(O)(C2CC2)C1)N1N=CC[C@H]1c1cc(F)cc(F)c1 [Example 1.34, (S)-(3-cyclopropyl-3-hydroxyazetidin-1-yl)(5-(3,5-difluorophenyl)-4,5-dihydro-1H-pyrazol-1-yl)methanone] | 2460 |
| O=C(N1CC2(C1)CN(c1cnccn1)C2)N1N=CC[C@H]1c1cc(F)cc(F)c1 [Example 1.35, (S)-(5-(3,5-difluorophenyl)-4,5-dihydro-1H-pyrazol-1-yl)(6-(pyrazin-2-yl)-2,6-diazaspiro[3.3]heptan-2-yl)methanone] | 5150 |
| CC1(C#N)CN(C(=O)N2N=CC[C@H]2c2cc(F)cc(F)c2)C1 [Example 1.36, (S)-1-(5-(3,5-difluorophenyl)-4,5-dihydro-1H-pyrazole-1-carbonyl)-3-methylazetidine-3-carbonitrile] | 62.3 |
| O=C(N1CC(C(F)F)C1)N1N=CC[C@H]1c1cc(F)cc(F)c1 [Example 1.37, (S)-(3-(difluoromethyl)azetidin-1-yl)(5-(3,5-difluorophenyl)-4,5-dihydro-1H-pyrazol-1-yl)methanone] | 22.6 |
| COCCC1CN(C(=O)N2N=CC[C@H]2c2cc(F)cc(F)c2)C1 [Example 1.38, (S)-(5-(3,5-difluorophenyl)-4,5-dihydro-1H-pyrazol-1-yl)(3-(2-methoxyethyl)azetidin-1-yl)methanone] | 105 |
| N#CC1(c2ccccc2)CN(C(=O)N2N=CC[C@H]2c2cc(F)cc(F)c2)C1 [Example 1.39, (S)-1-(5-(3,5-difluorophenyl)-4,5-dihydro-1H-pyrazole-1-carbonyl)-3-phenylazetidine-3-carbonitrile] | 648 |
| CC1CN(C(=O)N2N=CC[C@H]2c2cc(F)cc(F)c2)C1 [Example 1.40, (S)-(5-(3,5-difluorophenyl)-4,5-dihydro-1H-pyrazol-1-yl)(3-methylazetidin-1-yl)methanone] | 26 |
| O=C(N1CC(c2ccccc2)C1)N1N=CC[C@H]1c1cc(F)cc(F)c1 [Example 1.41, (S)-(5-(3,5-difluorophenyl)-4,5-dihydro-1H-pyrazol-1-yl)(3-phenylazetidin-1-yl)methanone] | 6.6 |
| O=C(N1CC(c2cccnc2)C1)N1N=CC[C@H]1c1cc(F)cc(F)c1 [Example 1.42, (S)-(5-(3,5-difluorophenyl)-4,5-dihydro-1H-pyrazol-1-yl)(3-(pyridin-3-yl)azetidin-1-yl)methanone, TFA salt] | 28.6 |
| O=C(N1CC(F)(c2ccccc2)C1)N1N=CC[C@H]1c1cc(F)cc(F)c1 [Example 1.43, (S)-(5-(3,5-difluorophenyl)-4,5-dihydro-1H-pyrazol-1-yl)(3-fluoro-3-phenylazetidin-1-yl)methanone] | 775 |
| O=C(N1CC(O)(c2ccccc2)C1)N1N=CC[C@H]1c1cc(F)cc(F)c1 [Example 1.44, (S)-(5-(3,5-difluorophenyl)-4,5-dihydro-1H-pyrazol-1-yl)(3-hydroxy-3-phenylazetidin-1-yl)methanone] | 811 |
| COC1(C)CN(C(=O)N2N=CC[C@H]2c2cc(F)cc(F)c2)C1 [Example 1.45, (S)-(5-(3,5-difluorophenyl)-4,5-dihydro-1H-pyrazol-1-yl)(3-methoxy-3-methylazetidin-1-yl)methanone] | 98.5 |
| COC1(C(F)(F)F)CN(C(=O)N2N=CC[C@H]2c2cc(F)cc(F)c2)C1 [Example 1.46, (S)-(5-(3,5-difluorophenyl)-4,5-dihydro-1H-pyrazol-1-yl)(3-methoxy-3-(trifluoromethyl)azetidin-1-yl)methanone] | 233 |
| CCOc1cccc(CC2CN(C(=O)N3N=CC[C@H]3c3cc(F)cc(F)c3)C2)c1 [Example 1.48, (S)-(5-(3,5-difluorophenyl)-4,5-dihydro-1H-pyrazol-1-yl)(3-(3-ethoxybenzyl)azetidin-1-yl)methanone] | 17.1 |
| Cc1ccccc1OC1CN(C(=O)N2N=CC[C@H]2c2cc(F)cc(F)c2)C1 [Example 1.49, (S)-(5-(3,5-difluorophenyl)-4,5-dihydro-1H-pyrazol-1-yl)(3-(o-tolyloxy)azetidin-1-yl)methanone] | 11.7 |
| O=C(N1CC(Oc2ccc(F)cc2)C1)N1N=CC[C@H]1c1cc(F)cc(F)c1 [Example 1.50, (S)-(5-(3,5-difluorophenyl)-4,5-dihydro-1H-pyrazol-1-yl)(3-(4-fluorophenoxy)azetidin-1-yl)methanone] | 7 |
| O=C(N1CC(c2ccncn2)C1)N1N=CC[C@H]1c1cc(F)cc(F)c1 [Example 1.51, (S)-(5-(3,5-difluorophenyl)-4,5-dihydro-1H-pyrazol-1-yl)(3-(pyrimidin-4-yl)azetidin-1-yl)methanone] | 1110 |
| O=C(N1CC(OCc2ncc(Br)s2)C1)N1N=CC[C@H]1c1cc(F)cc(F)c1 [Example 1.52, (S)-(3-((5-bromothiazol-2-yl)methoxy)azetidin-1-yl)(5-(3,5-difluorophenyl)-4,5-dihydro-1H-pyrazol-1-yl)methanone] | 23.9 |
| O=C(N1CC2(CCCOC2)C1)N1N=CC[C@H]1c1cc(F)cc(F)c1 [Example 1.53, (S)-(5-(3,5-difluorophenyl)-4,5-dihydro-1H-pyrazol-1-yl)(6-oxa-2-azaspiro[3.5]nonan-2-yl)methanone] | 530 |
